Laboratory results published in patent US20090118276A1, “THIENOPYRIMIDINES, THIENOPYRIDINES, AND PYRROLOPYRIMIDINES AS B-RAF INHIBITORS” (priority 2007, published 2009).

target: T1, Flag/GST-tagged recombinant human B-Raf (Homo sapiens, UniProt P15056); assay: B-Raf Kinase to MEK1 ELISA; type: biochemical; details: not given
T1 construct: Flag; GST; made in house; host or cells: Sf9 insect cells (B-Raf); E. coli (MEK1-GST)
Experimental: B-Raf Kinase to MEK1 ELISA
B-Raf1 Kinase Assay Procedure: B-Raf-1 is used to phosphorylate GST-MEK1.
B-Raf Assay Stock Solutions:
1. Assay Dilution Buffer (ADB): 20 mM MOPS, pH 7.2, 25 mM β-glycerol phosphate, 5 mM EGTA, 1 mM sodium orthovanadate, 1 mM dithiothreitol, 0.01% Triton X-100.
2. Magnesium/ATP Cocktail: ADB solution (minus Triton X-100) plus 200 μM cold ATP and 40 mM magnesium chloride.
4. Active Kinase: Active B-Raf: used at 0.2 nM per assay point.
8. Anti pMEK Ab (Upstate)
9. Anti-rabbit Ab/Europium conjugate (Wallac)
1. Add 25 μl of ADB containing B-Raf and Mek per assay (i.e. per well of a 96 well plate)
2. Add 25 μl of 0.2 mM ATP and 40 mM magnesium chloride in Magnesium/ATP Cocktail.
3. Incubate for 45 minutes at RT with occasional shaking.
4. Transfer this mixture to an anti-GST Ab coated 96 well plate (Nunc Immunosorb plates coated o/n with a-GST. Plate freshly washed 3× with TBS-T before use.
5. Incubate o/n at 30° C. in cold room.
6. Wash 3× with TBST, add Anti-Phospho MEK1 (1:1000, dilution depends upon lot)
7. Incubate for 60 minutes at RT in a shaking incubator
8. Wash 3× with TBST, add Anti-rabbit Ab/Europium conjugate (Wallac) (1:500, dilution depends upon lot)
9. Incubate for 60 minutes at RT on a platform shaker.
10. Wash plate 3× with TBS-T
11. Add 100 μl of Wallac Delfia Enhancement Solution and shake for 10 minutes.
12. Read plates in Wallac Victor model Plate Reader.
13. Collect data analyze in Excel for single point and IC50 determinations.
The % inhibition was determined for each compound concentration.

T1 sequence (P15056 whole entry): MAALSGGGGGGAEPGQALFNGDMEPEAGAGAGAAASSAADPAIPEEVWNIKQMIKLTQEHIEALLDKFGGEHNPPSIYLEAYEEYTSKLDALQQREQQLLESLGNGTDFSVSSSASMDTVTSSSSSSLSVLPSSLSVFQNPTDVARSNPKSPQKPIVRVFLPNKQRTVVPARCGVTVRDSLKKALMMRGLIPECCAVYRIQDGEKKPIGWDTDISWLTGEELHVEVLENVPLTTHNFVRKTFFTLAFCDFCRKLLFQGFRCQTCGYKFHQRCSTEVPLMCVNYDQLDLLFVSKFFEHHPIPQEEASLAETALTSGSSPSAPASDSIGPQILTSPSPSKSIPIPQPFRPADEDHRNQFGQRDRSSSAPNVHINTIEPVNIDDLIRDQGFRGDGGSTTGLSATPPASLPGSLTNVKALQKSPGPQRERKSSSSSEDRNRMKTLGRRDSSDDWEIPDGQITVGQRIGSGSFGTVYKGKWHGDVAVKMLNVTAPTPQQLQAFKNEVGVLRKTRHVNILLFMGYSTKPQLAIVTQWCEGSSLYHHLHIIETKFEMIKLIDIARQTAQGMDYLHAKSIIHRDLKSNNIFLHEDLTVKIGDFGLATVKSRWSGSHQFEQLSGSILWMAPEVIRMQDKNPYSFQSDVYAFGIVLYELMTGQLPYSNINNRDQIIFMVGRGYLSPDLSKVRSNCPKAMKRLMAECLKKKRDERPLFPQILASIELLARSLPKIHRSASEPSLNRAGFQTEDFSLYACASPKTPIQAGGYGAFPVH

Row | Structure (SMILES) | IC50 [nM]
1 | CN(C)Cc1ccc(-n2ccc3c(-c4cccc(NC(=O)c5cccc(C(F)(F)F)c5)c4)ncnc32)cc1 [Compound 111, N-[3-(7-{4-[(dimethylamino)methyl]phenyl}-7H-pyrrolo[2,3-d]pyrimidin-4-yl)phenyl]-3-(trifluoromethyl)benzamide] | 432
2 | Cc1ccc(C(=O)Nc2cccc(-c3ncnc4sc(-c5ccncc5)cc34)c2)cc1C(F)(F)F [Compound 37, 4-methyl-N-[3-(6-pyridin-4-ylthieno[2,3-d]pyrimidin-4-yl)phenyl]-3-(trifluoromethyl)benzamide] | 2610
3 | O=C(Nc1cccc(-c2ncnc3c2cc(-c2ccncc2)n3CCN2CCCC2)c1)c1cccc(C(F)(F)F)c1 [Compound 108, N-{3-[6-pyridin-4-yl-7-(2-pyrrolidin-1-ylethyl)-7H-pyrrolo[2,3-d]pyrimidin-4-yl]phenyl}-3-(trifluoromethyl)benzamide] | 68.5
4 | O=C(Nc1cccc(-c2ncnc3sc(-c4ccncc4)cc23)c1)c1ccc(Cl)c(C(F)(F)F)c1 [Compound 40, 4-chloro-N-[3-(6-pyridin-4-ylthieno[2,3-d]pyrimidin-4-yl)phenyl]-3-(trifluoromethyl)benzamide] | 3530

same assay, conditions: phosphorylation of GST-MEK1 by B-Raf (0.2 nM), phospho-MEK1 antibody/Europium readout; compound concentrations from 1 μM to 3 nM or 0.1 μM to 300 pm in half log dilutions; read-out: IC50

Row | Structure (SMILES) | IC50 [nM]
5 | NC(=O)c1cc2c(-c3cccc(NC(=O)c4cccc(C(F)(F)F)c4)c3)ncnc2s1 [Compound 89, 4-(3-{[3-(trifluoromethyl)benzoyl]amino}phenyl)thieno[2,3-d]pyrimidine-6-carboxamide] | 2720
6 | O=C(Nc1cccc(-c2ncnc3[nH]c(-c4ccncc4)cc23)c1)c1cccc(C(F)(F)F)c1 [Compound 101, N-[3-(6-pyridin-4-yl-7H-pyrrolo[2,3-d]pyrimidin-4-yl)phenyl]-3-(trifluoromethyl)benzamide] | 34.5
